Assay results taken from patent US8461107B2 (Merck Sharp & Dohme Corp., priority 2008, dated 2013).

Target: T1, HCV genotype 1b (BK) NS3 modified with a R155K mutation (Hepatitis C virus genotype 1b, UniProt P26663, R1181K)
T1 construct: HCV genotype 1b (BK) NS3 modified with a R155K mutation
Experiment: HCV NS3 protease time-resolved fluorescence (TRF) assay, NS3 protease 1b R155K Ki activity
Format: biochemical
Settings: HCV genotype 1b (BK) NS3 with R155K mutation; TRF peptide substrate 100 nM; Ki derived from IC50
Experimental: The HCV NS3 protease inhibitory activity of the present compounds may be tested using assays known in the art. One such assay is HCV NS3 protease time-resolved fluorescence (TRF) assay as described below and in International Patent Application Publication WO 2006/102087. Other examples of such assays are described in e.g., International Patent Application Publication WO 2005/046712.
A NS3 protease assay can be performed, for example, in a final volume of 100 μl assay buffer containing 50 mM HEPES, pH 7.5, 150 mM NaCl, 15% glycerol, 0.15% TRITON X-100, 10 mM DTT, and 0.1% PEG 8000. NS3 and NS4A protease is pre-incubated with various concentrations of inhibitors in DMSO for 30 minutes. The reaction is initiated by adding the TRF peptide substrate (final concentration 100 nM). NS3 mediated hydrolysis of the substrate is quenched after 1 hour at room temperature with 100 μl of 500 mM MES, pH 5.5. Product fluorescence is detected using either a VICTOR V2 or FUSION fluorophotometer (Perkin Elmer Life and Analytical Sciences) with excitation at 340 nm and emission at 615 nm with a 400 μs delay. Testing concentrations of different enzyme forms are selected to result in a signal to background ratio (S/B) of 10-30. IC50 values are derived using a standard four-parameter fit to the data. Ki values are derived from IC50 values using the following formula, IC50=Ki(1+[S]/KM), Eqn (1), where [S] is the concentration of substrate peptide in the reaction and KM is the Michaelis constant. See P. Gallinari et al., 38 BIOCHEM. 5620-32 (1999); P. Gallinari et al., 72 J. VIROL. 6758-69 (1998); M. Taliani et al., 240 ANAL. BIOCHEM. 60-67 (1996).
The HCV NS3 protease inhibitory activity was measured using the protease time-resolved fluorescence (TRF) assay as described below and in International Patent Application Publication WO 2006/102087. The assay was performed with HCV genotype 1b (BK) NS3 modified with a R155K mutation.
The assay was performed in a final volume of 100 μl in assay buffer containing 50 mM HEPES, pH 7.5, 150 mM NaCl, 15% glycerol, 0.15% TRITON X-100, 10 mM DTT, and 0.1% PEG 8000. NS3 and NS4A protease is pre-incubated with various concentrations of inhibitors in DMSO for 30 minutes. The reaction is initiated by adding the TRF peptide substrate (final concentration 100 nM). NS3 mediated hydrolysis of the substrate is quenched after 1 hour at room temperature with 100 μl of 500 mM MES, pH 5.5. Product fluorescence is detected using either a VICTOR V2 or FUSION fluorophotometer (Perkin Elmer Life and Analytical Sciences) with excitation at 340 nm and emission at 615 nm with a 400 μs delay. Testing concentrations of the enzyme containing the R155K mutation were selected to result in a signal to background ratio (S/B) of 10-30. IC50 values are derived using a standard four-parameter fit to the data. Ki values are derived from IC50 values using the following formula, IC50=Ki(1+[S]/KM), Eqn (1), where [S] is the concentration of substrate peptide in the reaction and KM is the Michaelis constant. See P. Gallinari et al., 38 BIOCHEM. 5620-32 (1999); P. Gallinari et al., 72 J. VIROL. 6758-69 (1998); M. Taliani et al., 240 ANAL. BIOCHEM. 60-67 (1996).

Compound	Ki [nM]
C=C[C@@H]1C[C@]1(NC(=O)[C@@H]1C[C@@H]2CN1C(=O)[C@H](C1CCCC1)NC(=O)O[C@@H]1CCC[C@H]1CCCCCn1c(nc3c(OC)cccc3c1=O)O2)C(=O)NS(=O)(=O)C1CC1 [(3aR,7S,10S,12R,25aR)-7-cyclopentyl-N-((1R,2S)-1-{[(cyclopropylsulfonyl)amino]carbonyl}-2-vinylcyclopropyl)-15-methoxy-5,8,19-trioxo-1,2,3,3a,5,6,7,8,11,12,21,22,23,24,25,25a-hexadecahydro-10H,19H-9,12-methanocyclopenta[18,19][1,10,3,6,12]dioxatriazacyclononadecino[11,12-b]quinazoline-10-carboxamide]	< 0.1
CC[C@@H]1C[C@]1(NC(=O)[C@@H]1C[C@@H]2CN1C(=O)[C@H](C1CCCC1)NC(=O)O[C@@H]1CCC[C@H]1CC/C=C/Cn1c(nc3c(OC)cccc3c1=O)O2)C(=O)NS(=O)(=O)C1CC1 [(3aR,7S,10S,12R,22E,25aS)-7-cyclopentyl-N-((1R,2R)-1-{[(cyclopropylsulfonyl)amino]carbonyl}-2-ethylcyclopropyl)-15-methoxy-5,8,19-trioxo-1,2,3,3a,5,6,7,8,11,12,21,24,25,25a-tetradecahydro-10H,19H-9,12-methanocyclopenta[18,19][1,10,3,6,12]dioxatriazacyclononadecino[11,12-b]quinazoline-10-carboxamide]	0.1 to 0.5
C=C[C@@H]1C[C@]1(NC(=O)[C@@H]1C[C@@H]2CN1C(=O)[C@H](C1CCCC1)NC(=O)O[C@@H]1CCC[C@H]1CC/C=C/Cn1c(nc3cc(S(C)(=O)=O)ccc3c1=O)O2)C(=O)NS(=O)(=O)C1CC1 [(3aR,7S,10S,12R,22E,25aS)-7-cyclopentyl-N-((1R,2S)-1-{[(cyclopropylsulfonyl)amino]carbonyl}-2-vinylcyclopropyl)-16-(methylsulfonyl)-5,8,19-trioxo-1,2,3,3a,5,6,7,8,11,12,21,24,25,25a-tetradecahydro-10H,19H-9,12-methanocyclopenta[18,19][1,10,3,6,12]dioxatriazacyclononadecino[11,12-b]quinazoline-10-carboxamide]	< 0.1
CC[C@@H]1C[C@]1(NC(=O)[C@@H]1C[C@@H]2CN1C(=O)[C@H](C1CCCC1)NC(=O)O[C@@H]1CCC[C@H]1CC/C=C/Cn1c(nc3cccc(OC)c3c1=O)O2)C(=O)NS(=O)(=O)C1CC1 [(3aR,7S,10S,12R,22E,25aS)-7-cyclopentyl-N-((1R,2R)-1-{[(cyclopropylsulfonyl)amino]carbonyl}-2-ethylcyclopropyl)-18-methoxy-5,8,19-trioxo-1,2,3,3a,5,6,7,8,11,12,21,24,25,25a-tetradecahydro-10H,19H-9,12-methanocyclopenta[18,19][1,10,3,6,12]dioxatriazacyclononadecino[11,12-b]quinazoline-10-carboxamide]	0.1 to 0.5
CC[C@@H]1C[C@]1(NC(=O)[C@@H]1C[C@@H]2CN1C(=O)[C@H](C1CCCC1)NC(=O)O[C@@H]1CCC[C@H]1CC/C=C/Cn1c(nc3cc(-c4ccccc4)ccc3c1=O)O2)C(=O)NS(=O)(=O)C1CC1 [(3aR,7S,10S,12R,22E,25aS)-7-cyclopentyl-N-((1R,2R)-1-{[(cyclopropylsulfonyl)amino]carbonyl}-2-ethylcyclopropyl)-5,8,19-trioxo-16-phenyl-1,2,3,3a,5,6,7,8,11,12,21,24,25,25a-tetradecahydro-10H,19H-9,12-methanocyclopenta[18,19][1,10,3,6,12]dioxatriazacyclononadecino[11,12-b]quinazoline-10-carboxamide]	0.1 to 0.5
C=C[C@@H]1C[C@]1(NC(=O)[C@@H]1C[C@@H]2CN1C(=O)[C@H](C1CCCC1)NC(=O)O[C@@H]1CCC[C@H]1CCCCCn1c(nc3cc(C#N)ccc3c1=O)O2)C(=O)NS(=O)(=O)C1CC1 [Example 78, (3aR,7S,10S,12R,25aR)-16-cyano-7-cyclopentyl-N-((1R,2S)-1-{[(cycyclopropylsulfonyl)amino]carbonyl}-2-vinylcyclopropyl)-5,8,19-trioxo-1,2,3,3a,5,6,7,8,11,12,21,22,23,24,25,25a-hexadecahydro-10H,19H-9,12-methanocyclopenta[18,19][1,10,3,6,12]dioxatriazacyclononadecino[11,12-b]quinazoline-10-carboxamide]	0.1 to 0.5
C=C[C@@H]1C[C@]1(NC(=O)[C@@H]1C[C@@H]2CN1C(=O)[C@H](C1CCCC1)NC(=O)O[C@@H]1CCC[C@H]1CCCCCn1c(nc3cc(Cl)ccc3c1=O)O2)C(=O)NS(=O)(=O)C1(C)CC1 [(1R,18R,22R,26S,29S)-7-chloro-26-cyclopentyl-N-[(1R,2S)-1-({[(1-methylcyclopropyl)sulfonyl]amino}carbonyl)-2-vinylcyclopropyl]-11,24,27-trioxo-2,23-dioxa-4,12,25,28-tetraazapentacyclo[26.2.1.0^3,12.0^5,10.0^18,22]hentriaconta-3,5,7,9-tetraene-29-carboxamide]	< 0.1
C=C[C@@H]1C[C@]1(NC(=O)[C@@H]1C[C@@H]2CN1C(=O)[C@H](C1CCCC1)NC(=O)O[C@@H]1CCC[C@H]1CCCCCn1c(cc3cc(Cl)ccc3c1=O)O2)C(=O)NS(=O)(=O)C1CC1 [(3aR,7S,10S,12R,25aR)-16-chloro-7-cyclopentyl-N-((1R,2S)-1-{[(cyclopropylsulfonyl)amino]carbonyl}-2-vinylcyclopropyl)-5,8,19-trioxo-1,2,3,3a,5,6,7,8,11,12,21,22,23,24,25,25a-hexadecahydro-10H,19H-9,12-methanocyclopenta[18,19][1,10,3,6,12]dioxatriazacyclononadecino[12,11-b]isoquinoline-10-carboxamide]	< 0.1
CC[C@@H]1C[C@]1(NC(=O)[C@@H]1C[C@@H]2CN1C(=O)[C@H](C1CCCC1)NC(=O)O[C@@H]1CCC[C@H]1CCCCCn1c(cc3ccccc3c1=O)O2)C(=O)NS(=O)(=O)C1CC1 [(3aR,7S,10S,12R,25aR)-7-cyclopentyl-N-((1R,2R)-1-{[(cyclopropylsulfonyl)amino]carbonyl}-2-ethylcyclopropyl)-5,8,19-trioxo-1,2,3,3a,5,6,7,8,11,12,21,22,23,24,25,25a-hexadecahydro-10H,19H-9,12-methanocyclopenta[18,19][1,10,3,6,12]dioxatriazacyclononadecino[12,11-b]isoquinoline-10-carboxamide]	0.1 to 0.5
CC[C@@H]1C[C@]1(NC(=O)[C@@H]1C[C@@H]2CN1C(=O)[C@H](C1CCCC1)NC(=O)O[C@@H]1CCC[C@H]1CCCCCn1c(nc3cc(OC)ccc3c1=O)O2)C(=O)NS(=O)(=O)C1CC1 [(3aR,7S,10S,12R,25aR)-7-cyclopentyl-N-((1R,2R)-1-{[(cyclopropylsulfonyl)amino]carbonyl}-2-ethylcyclopropyl)-16-methoxy-5,8,19-trioxo-1,2,3,3a,5,6,7,8,11,12,21,22,23,24,25,25a-hexadecahydro-10H,19H-9,12-methanocyclopenta[18,19][1,10,3,6,12]dioxatriazacyclononadecino[11,12-b]quinazoline-10-carboxamide]	0.1 to 0.5
C=C[C@@H]1C[C@]1(NC(=O)[C@@H]1C[C@@H]2CN1C(=O)[C@H](C1CCCC1)NC(=O)O[C@@H]1CCC[C@H]1CCCC1CC1Cn1c(cc3ccccc3c1=O)O2)C(=O)NS(=O)(=O)C1CC1 (some centres unmarked)	0.5 to 1
